According to ChEMBL document CHEMBL4145596, “Design, Synthesis, and X-ray of Selenides as New Class of Agents for Prevention of Diabetic Cerebrovascular Pathology” (ACS Med Chem Lett, 2018):
The source made the active and inactive calls. The rule behind the calls is not given here.

What was measured:
Carbonic anhydrase 9 = Carbonic anhydrase 9 (Homo sapiens, UniProt Q16790)
Description: Inhibition of human carbonic anhydrase 9 after 15 mins by stopped flow carbon dioxide hydration assay

RBE4 [1] = assay: Cytotoxicity against rat RBE4 cells assessed as mortality at 10 uM after 24 hrs by MTT assay; type: cell-based; settings: rbe4, 24 h
RBE4 [2] = assay: Protection against glucose oxidase-induced oxidative stress in rat RBE4 cells assessed as increase in cell viability at 10 to 100 uM cotreated with glucose oxidase for 1 hr measured after 24 hrs by MTT assay; type: functional, cell-based
RBE4 [3] = assay: Protection against glucose oxidase-induced oxidative stress in rat RBE4 cells assessed as increase in cell viability at 100 uM cotreated with glucose oxidase for 1 hr measured after 24 hrs by MTT assay; type: functional, cell-based
RBE4 [4] = assay: Cytotoxicity against rat RBE4 cells assessed as mortality at 30 uM after 24 hrs by MTT assay; type: cell-based; settings: rbe4, 24 h

C=CC[Se]c1ccc(S(N)(=O)=O)cc1
Ki (Carbonic anhydrase 9): 2.6 nM

CC#CC[Se]c1ccc(S(N)(=O)=O)cc1
Ki (Carbonic anhydrase 9): 2.2 nM

C[Se]c1ccc(S(N)(=O)=O)cc1
Ki (Carbonic anhydrase 9): 2.7 nM

CCCCC[Se]c1ccc(S(N)(=O)=O)cc1
Ki (Carbonic anhydrase 9): 2.6 nM | Activity (RBE4 [1]): Non-Toxic | Activity (RBE4 [2]): inactive

NS(=O)(=O)c1ccc([Se]CCc2ccccc2)cc1
Ki (Carbonic anhydrase 9): 8.7 nM

CC(C)[Se]c1ccc(S(N)(=O)=O)cc1
Ki (Carbonic anhydrase 9): 2.4 nM | Activity (RBE4 [1]): Non-Toxic | Activity (RBE4 [2]): inactive

COCC[Se]c1ccc(S(N)(=O)=O)cc1
Ki (Carbonic anhydrase 9): 12 nM | Activity (RBE4 [1]): Non-Toxic | Activity (RBE4 [3]): Active

C#CC[Se]c1ccc(S(N)(=O)=O)cc1
Ki (Carbonic anhydrase 9): 2.7 nM

NS(=O)(=O)c1ccc([Se]CCO)cc1
Ki (Carbonic anhydrase 9): 2.4 nM | Activity (RBE4 [1]): Non-Toxic | Activity (RBE4 [2]): inactive

NS(=O)(=O)c1ccc(C[Se]c2ccccc2)cc1
Ki (Carbonic anhydrase 9): 2.7 nM

NS(=O)(=O)c1ccc([Se]C2CCCCC2)cc1
Ki (Carbonic anhydrase 9): 2.6 nM

NS(=O)(=O)c1ccc([Se][Se]c2ccc(S(N)(=O)=O)cc2)cc1
mortality (RBE4 [4]): 50%
